From patent publication US10202360B2 (CELGENE QUANTICEL RESEARCH, INC., priority 2016, dated 2019)

Biological target: CREBBP (Homo sapiens (Human), UniProt Q92793)
Assay: In vitro enzyme inhibition assay - CREBBP inhibition (AlphaScreen, biotinylated H4-tetraacetyl peptide)
Assay type: binding
Details: Table 28; AlphaScreen, H4-tetraacetyl peptide
Procedure, shortened: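 His-tagged CREBBP expressed in E. coli (50 nM final) incubated with biotinylated H4K5/8/12/16(Ac) peptide (20 nM final) in HEPES pH 7.3 buffer, 0.4% DMSO, 20 min at room temperature.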

CREBBP, sequence (Q92793 1081-1197): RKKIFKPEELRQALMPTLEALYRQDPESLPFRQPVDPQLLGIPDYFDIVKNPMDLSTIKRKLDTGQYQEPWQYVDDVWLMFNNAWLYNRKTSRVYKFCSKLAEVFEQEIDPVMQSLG

| Compound | IC50 [nM] |
| --- | --- |
| CCC(CC)S(=O)(=O)Nc1cc(-c2ccc(=O)n(C)c2)nc(Oc2c(C)cccc2Cl)n1 [Example 259, Pentane-3-sulfonic acid [2-(2-chloro-6-methyl-phenoxy)-6-(1-methyl-6-oxo-1,6-dihydro-pyridin-3-yl)-pyrimidin-4-yl]-amide] | < 500 |
| CCS(=O)(=O)Cc1cc(-c2cc(C)c(=O)n(C)c2)nc(Oc2ccc(F)cc2F)n1 [Example 96, 5-[2-(2,4-Difluoro-phenoxy)-6-ethanesulfonylmethyl-pyrimidin-4-yl]-1,3-dimethyl-1H-pyridin-2-one] | < 500 |
| Cc1cccc(CNc2cc(-c3ccc(=O)n(C)c3)nc(Oc3c(C)cccc3F)n2)n1 [Example 289, 5-(2-(2-fluoro-6-methylphenoxy)-6-(((6-methylpyridin-2-yl)methyl)amino)pyrimidin-4-yl)-1-methylpyridin-2(1H)-one] | < 500 |
| Cc1cccc(Cl)c1Oc1nc(NS(=O)(=O)CCC2CC2)cc(-c2ccc(=O)n(C)c2)n1 [Example 266, 2-Cyclopropyl-ethanesulfonic acid [2-(2-chloro-6-methyl-phenoxy)-6-(1-methyl-6-oxo-1,6-dihydro-pyridin-3-yl)-pyrimidin-4-yl]-amide] | < 500 |
| Cc1ccc(F)c(Oc2nc(NS(=O)(=O)C(C)C)cc(-c3ccc(=O)n(C)c3)n2)c1F [Example 260, Propane-2-sulfonic acid [2-(2,6-difluoro-3-methyl-phenoxy)-6-(1-methyl-6-oxo-1,6-dihydro-pyridin-3-yl)-pyrimidin-4-yl]-amide] | < 500 |
| Cc1cccc(C#N)c1Oc1nc(NS(=O)(=O)CCCF)cc(-c2ccc(=O)n(C)c2)n1 [Example 123, 3-Fluoro-propane-1-sulfonic acid [2-(2-cyano-6-methyl-phenoxy)-6-(1-methyl-6-oxo-1,6-dihydro-pyridin-3-yl)-pyrimidin-4-yl]-amide] | < 500 |
| CCCS(=O)(=O)Nc1cc(-c2cc(C)c(=O)n(C)c2)cc(Oc2c(C)cccc2C)n1 [Example 92, N-(6′-(2,6-dimethylphenoxy)-1,5-dimethyl-6-oxo-1,6-dihydro-[3,4′-bipyridin]-2′-yl)propane-1-sulfonamide] | < 500 |
| CC[C@@H](C)S(=O)(=O)Nc1cc(-c2ccc(=O)n(C)c2)nc(Oc2c(C)ccc(F)c2F)n1 [Example 212, (2R)-Butane-2-sulfonic acid [2-(2,3-difluoro-6-methyl-phenoxy)-6-(1-methyl-6-oxo-1,6-dihydro-pyridin-3-yl)-pyrimidin-4-yl]-amide] | < 500 |
| Cc1cccc(C)c1Oc1nc(NS(=O)(=O)CCCF)cc(-c2cc(C)c(=O)n(C)c2)n1 [Example 81, N-(6-(1,5-dimethyl-6-oxo-1,6-dihydropyridin-3-yl)-2-(2,6-dimethylphenoxy)pyrimidin-4-yl)-3-fluoropropane-1-sulfonamide] | < 500 |
| Cc1cccc(Cl)c1Oc1nc(NCCC(C)C)cc(-c2ccc(=O)n(C)c2)n1 [Example 315, 5-[2-(2-Chloro-6-methyl-phenoxy)-6-(3-methyl-butylamino)-pyrimidin-4-yl]-1-methyl-1H-pyridin-2-one] | < 500 |
| CCCCCS(=O)(=O)Nc1nc(Oc2c(C)cccc2F)nc(-c2cc(C)c(=O)n(C)c2)n1 [Example 185, Pentane-1-sulfonic acid [4-(1,5-dimethyl-6-oxo-1,6-dihydro-pyridin-3-yl)-6-(2-fluoro-6-methyl-phenoxy)-[1,3,5]triazin-2-yl]-amide] | < 500 |
| Cc1cc(-c2cc(NS(=O)(=O)C(C)C)nc(Oc3ccc(F)cc3F)n2)cn(CC(F)(F)F)c1=O [Example 52, Propane-2-sulfonic acid {2-(2,4-difluoro-phenoxy)-6-[5-methyl-6-oxo-1-(2,2,2-trifluoro-ethyl)-1,6-dihydro-pyridin-3-yl]-pyrimidin-4-yl}-amide] | 500 to 5000 |
| Cc1cc(Cl)cc(Cl)c1Oc1nc(NS(C)(=O)=O)cc(-c2ccc(=O)n(C)c2)n1 [Example 29, N-[2-(2,4-Dichloro-6-methyl-phenoxy)-6-(1-methyl-6-oxo-1,6-dihydro-pyridin-3-yl)-pyrimidin-4-yl]-methanesulfonamide] | < 500 |
| Cc1cccc(Cl)c1Oc1nc(N)cc(-c2cc(C)c(=O)n(C)c2)n1 [Example 334, 5-[6-Amino-2-(2-chloro-6-methyl-phenoxy)-pyrimidin-4-yl]-1,3-dimethyl-1H-pyridin-2-one] | < 500 |
| CN(Cc1ccccc1)c1cc(-c2ccc(=O)n(C)c2)nc(Oc2ccc(F)cc2F)n1 [Example 275, 5-(6-(benzyl(methyl)amino)-2-(2,4-difluorophenoxy)pyrimidin-4-yl)-1-methylpyridin-2(1H)-one] | < 500 |
| Cc1cccc(Cl)c1Oc1nc(NS(=O)(=O)C(C)C)nc(-c2ccc(=O)n(C)c2)n1 [Example 180, Propane-2-sulfonic acid [4-(2-chloro-6-methyl-phenoxy)-6-(1-methyl-6-oxo-1,6-dihydro-pyridin-3-yl)-[1,3,5]triazin-2-yl]-amide] | < 500 |
| CC(C)S(=O)(=O)Nc1cc(-c2ccc(=O)n(C)c2)nc(Oc2c(F)cccc2Cl)n1 [Example 144, Propane-2-sulfonic acid [2-(2-chloro-6-fluoro-phenoxy)-6-(1-methyl-6-oxo-1,6-dihydro-pyridin-3-yl)-pyrimidin-4-yl]-amide] | < 500 |
| CC[C@@H](C)S(=O)(=O)Nc1cc(-c2ccc(=O)n(C)c2)nc(Oc2c(F)cccc2OC)n1 [Example 208, Butane-(2R)-sulfonic acid [2-(2-fluoro-6-methoxy-phenoxy)-6-(1-methyl-6-oxo-1,6-dihydro-pyridin-3-yl)-pyrimidin-4-yl]-amide] | < 500 |
| COc1nc(NCCc2ccccc2)cc(-c2ccc(=O)n(C)c2)n1 [Example 329, 5-(2-Methoxy-6-phenethylamino-pyrimidin-4-yl)-1-methyl-1H-pyridin-2-one] | < 500 |
| CCCCS(=O)(=O)Nc1cc(-c2ccc(=O)n(C)c2)nc(Oc2c(F)cccc2C2CC2)n1 [Example 240, Butane-1-sulfonic acid [2-(2-cyclopropyl-6-fluoro-phenoxy)-6-(1-methyl-6-oxo-1,6-dihydro-pyridin-3-yl)-pyrimidin-4-yl]-amide] | < 500 |
| CCCCS(=O)(=O)Nc1cc(-c2cc(C)c(=O)n(C)c2)nc(Oc2cnn(C)c2)n1 [Example 74, N-(6-(1,5-dimethyl-6-oxo-1,6-dihydropyridin-3-yl)-2-((1-methyl-1H-pyrazol-4-yl)oxy)pyrimidin-4-yl)butane-1-sulfonamide] | < 500 |
| CCC[C@@H](C)Nc1cc(-c2ccc(=O)n(C)c2)nc(Oc2c(C)cccc2Cl)n1 [Example 313, (R)-5-[2-(2-Chloro-6-methyl-phenoxy)-6-(1-methyl-butylamino)-pyrimidin-4-yl]-1-methyl-1H-pyridin-2-one] | < 500 |
| COc1ccc(Oc2nc(NS(=O)(=O)C(C)C)cc(-c3cc(C)c(=O)n(C)c3)n2)cc1Cl [Example 68, N-(2-(3-chloro-4-methoxyphenoxy)-6-(1,5-dimethyl-6-oxo-1,6-dihydropyridin-3-yl)pyrimidin-4-yl)propane-2-sulfonamide] | < 500 |
| Cc1cccc(F)c1Oc1nc(N[C@@H]2CCCc3ccccc32)cc(-c2ccc(=O)n(C)c2)n1 [Example 307, (R)-5-[2-(2-Fluoro-6-methyl-phenoxy)-6-(1,2,3,4-tetrahydro-naphthalen-1-ylamino)-pyrimidin-4-yl]-1-methyl-1H-pyridin-2-one] | < 500 |
